Laboratory results as given in ChEMBL document CHEMBL6134810, “Novel Hypochlorous Acid-Activated Near-Infrared Probe Monitors the Dynamic Changes of Myeloperoxidase Activity in Ischemic Brain” (J Med Chem, 2025).
Calls of active or inactive are those of the source. No cut-off for these calls is given here.

Legend:
Mus musculus [1] = assay: Protection against photo thrombotic stroke induced cerebral ischemia in male C57BL/6 mouse model assessed as decrease in asymmetry index at 40 mg/kg, IG preincubated for 18 consecutive days followed by induction of stoke for 3 days and measured after 10 to 15 days by foot fault test; assay type: functional, organism-based; settings: time 31-36 day
Mus musculus [2] = assay: Protection against photo thrombotic stroke induced cerebral ischemia in male C57BL/6 mouse model assessed as amelioration of foot fault in hindlimb at 40 mg/kg, IG preincubated for 18 consecutive days followed by induction of stoke for 3 days and measured after 5 to 15 days by foot fault test; assay type: functional, organism-based; settings: time 26-36 day
Mus musculus [3] = assay: Protection against photo thrombotic stroke induced cerebral ischemia in male C57BL/6 mouse model assessed as decrease in infarct size at 40 mg/kg, IG preincubated for 18 consecutive days followed by induction of stoke for 3 days and measured after 5 days by TTC staining based analysis; assay type: functional, organism-based; settings: time 26.0 day
Mus musculus [4] = assay: Protection against photo thrombotic stroke induced cerebral ischemia in male C57BL/6 mouse model assessed as effect on body weight at 40 mg/kg, IG preincubated for 18 consecutive days followed by induction of stoke for 3 days and measured after 5 days by TTC staining based analysis; assay type: functional, organism-based; settings: time 26.0 day
Mus musculus [5] = assay: Protection against photo thrombotic stroke induced cerebral ischemia in male C57BL/6 mouse model assessed as amelioration of foot fault in forelimb at 40 mg/kg, IG preincubated for 18 consecutive days followed by induction of stoke for 3 days and measured after 5 to 15 days by foot fault test; assay type: functional, organism-based; settings: time 26-36 day
Mus musculus [6] = assay: Protection against photo thrombotic stroke induced cerebral ischemia in male C57BL/6 mouse model assessed as inhibition of MPO activity in brain at 40 mg/kg, IG preincubated for 18 consecutive days followed by induction of stoke for 3 days and measured after 7 days; assay type: functional, organism-based; settings: time 28.0 day
Mus musculus [7] = species on record: Mus musculus; assay: Protection against photo thrombotic stroke induced cerebral ischemic male C57 mouse model assessed as improvement in sensory motor dysfunction measured after 5 days by foot fault test; assay type: functional, organism-based; settings: time 5.0 day
Mus musculus [8] = species on record: Mus musculus; assay: Protection against photo thrombotic stroke induced cerebral ischemic male C57 mouse model assessed as reduction in number neutrophils measured after 7 days; assay type: functional, organism-based; settings: time 7.0 day
Mus musculus [9] = species on record: Mus musculus; assay: Protection against photo thrombotic stroke induced cerebral ischemic male C57 mouse model assessed as improvement in sensory motor dysfunction measured after 5 days by rotarod test; assay type: functional, organism-based; settings: time 5.0 day
HT-22 [10] = assay: Cytotoxicity against mouse HT-22 cells assessed as cell viability at 20 uM incubated for 24 hrs by CCK-8 method; assay type: functional, cell-based
[11] = target: T1, Myeloperoxidase (Homo sapiens) (UniProt P05164); assay: Binding affinity to MPO (unknown origin) assessed as change in enthalpy by ITC analysis
T1 sequence (whole entry): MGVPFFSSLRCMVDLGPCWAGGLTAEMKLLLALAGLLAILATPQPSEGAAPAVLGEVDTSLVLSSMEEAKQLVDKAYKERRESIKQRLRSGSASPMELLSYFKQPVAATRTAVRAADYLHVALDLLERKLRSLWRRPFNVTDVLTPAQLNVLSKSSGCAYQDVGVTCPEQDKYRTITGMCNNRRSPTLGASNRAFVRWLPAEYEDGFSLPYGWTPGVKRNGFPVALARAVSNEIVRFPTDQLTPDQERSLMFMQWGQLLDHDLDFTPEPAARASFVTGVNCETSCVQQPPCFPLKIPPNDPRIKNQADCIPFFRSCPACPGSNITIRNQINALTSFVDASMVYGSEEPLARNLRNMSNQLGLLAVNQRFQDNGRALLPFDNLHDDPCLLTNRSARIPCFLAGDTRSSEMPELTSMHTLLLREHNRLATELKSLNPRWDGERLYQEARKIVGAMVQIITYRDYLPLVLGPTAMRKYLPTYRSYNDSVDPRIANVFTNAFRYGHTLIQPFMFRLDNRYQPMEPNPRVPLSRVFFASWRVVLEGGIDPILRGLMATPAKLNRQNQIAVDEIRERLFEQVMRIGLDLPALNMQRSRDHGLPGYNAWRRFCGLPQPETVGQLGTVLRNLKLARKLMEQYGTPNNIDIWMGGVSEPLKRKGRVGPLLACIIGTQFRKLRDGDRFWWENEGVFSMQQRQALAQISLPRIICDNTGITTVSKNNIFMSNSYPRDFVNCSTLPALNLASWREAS

[12] = target: T1, Myeloperoxidase (Homo sapiens); assay: (§1) Binding affinity to MPO (unknown origin) assessed as dissociation constant by ITC analysis
[13] = target: T1, Myeloperoxidase (Homo sapiens); assay: Inhibition of MPO in HEK293T cells harbouring MPO-ZsGreen assessed as decrease in red fluorescence intensity at 10 uM preincubated with MPO-IN-28 for 4 hrs followed by compound addition and measured after 30 mins by fluorescence imaging based confocal microscopy analysis; assay type: cell-based
[14] = target: T1, Myeloperoxidase (Homo sapiens); assay: Inhibition of MPO in HEK293T cells harbouring MPO-ZsGreen assessed as decrease in red fluorescence intensity at 10 uM preincubated with ZL-006 for 4 hrs followed by compound addition and measured after 30 mins by fluorescence imaging based confocal microscopy analysis; assay type: cell-based
[15] = target: T1, Myeloperoxidase (Homo sapiens); assay: Inhibition of MPO in human HL-60 cells harbouring MPO-ZsGreen assessed as decrease in red fluorescence intensity at 10 uM preincubated with MPO-IN-28 for 2 hrs followed by compound addition and measured after 30 mins by fluorescence imaging based confocal microscopy analysis; assay type: cell-based
[16] = Drug uptake in human HeLa cells assessed as increase in red fluorescence at 10 uM measured within 40 mins in presence of HClO by Hoechst staining based confocal microscopic analysis; assay type: ADME, cell-based
[17] = Drug uptake in human HeLa cells assessed as increase in red fluorescence at 10 uM measured after 30 mins in presence of HClO by Hoechst staining based confocal microscopic analysis; assay type: ADME, cell-based; settings: 0.5 h
[18] = target: T1, Myeloperoxidase (Homo sapiens); assay: Inhibition of MPO in HEK293T cells harbouring MPO-ZsGreen assessed as decrease in red fluorescence intensity at 10 uM preincubated with AZD5904 for 4 hrs followed by compound addition and measured after 30 mins by fluorescence imaging based confocal microscopy analysis; assay type: cell-based
[19] = Drug uptake in human HeLa cells at 10 uM measured after 30 mins by Hoechst staining based confocal microscopic analysis; assay type: ADME, cell-based; settings: 0.5 h
[20] = target: T1, Myeloperoxidase (Homo sapiens); assay: Inhibition of MPO in HEK293T cells harbouring MPO-ZsGreen assessed as decrease in red fluorescence intensity at 10 uM preincubated with ZL-002 for 4 hrs followed by compound addition and measured after 30 mins by fluorescence imaging based confocal microscopy analysis; assay type: cell-based
Myeloperoxidase = target: T2, Myeloperoxidase (Homo sapiens, UniProt P05164); assay: as §1
T2 sequence (P05164 whole entry): T1 sequence (whole entry)

Brain [21] = assay: (§2) Ex vivo protection against photo thrombotic stroke induced cerebral ischemia in male C57BL/6 mouse brain assessed as decrease in MPO induced HClO fluorescence signal in cortex at 10 uM preincubated with MPO-IN-28 for 1 hr followed by compound addition and measured after 30 mins by fluorescence imaging based confocal microscopy analysis; assay type: functional, tissue-based
[22] = target: T1, Myeloperoxidase (Homo sapiens); assay: Induction of thermal stabilization of MPO (unknown origin) at 10 uM by CESTA analysis
Mus musculus [23] = species on record: Mus musculus; assay: Protection against photo thrombotic stroke induced cerebral ischemia in male C57BL/6 mouse model assessed as decrease in fluorescence response in brain cortex preincubated with AZD5904 for 18 consecutive days followed by induction of stoke for 3 days and measured after 7 days by Ly6G staining based confocal microscopy based analysis; assay type: functional, organism-based; settings: time 7.0 day
[24] = target: T1, Myeloperoxidase (Homo sapiens); assay: Inhibition of MPO in HEK293T cells harbouring MPO-ZsGreen assessed as decrease in red fluorescence intensity at 10 uM preincubated with edaravone for 4 hrs followed by compound addition and measured after 30 mins by fluorescence imaging based confocal microscopy analysis; assay type: cell-based
Brain [25] = assay: as §2, with “AZD5904” for “MPO-IN-28”; assay type: functional, tissue-based
HT-22 [26] = assay: Cytotoxicity against mouse HT-22 cells assessed as cell viability at 50 uM incubated for 24 hrs by CCK-8 method; assay type: functional, cell-based
Mus musculus [27] = assay: Protection against photo thrombotic stroke induced cerebral ischemia in male C57BL/6 mouse model assessed as MPO secretion in brain at 1 mg/kg, iv by Ly6G staining based confocal microscopy based analysis; assay type: functional, organism-based
[28] = Drug uptake in IFN-gamma treated human Neutrophil cells assessed as increase in fluorescence at 10 uM measured after 30 mins by Hoechst staining based confocal microscopic analysis; assay type: ADME, cell-based; settings: 0.5 h
[29] = target: T1, Myeloperoxidase (Homo sapiens); assay: Inhibition of MPO in human HL-60 cells harbouring MPO-ZsGreen assessed as decrease in red fluorescence intensity at 10 uM preincubated with AZD5904 for 2 hrs followed by compound addition and measured after 30 mins by fluorescence imaging based confocal microscopy analysis; assay type: cell-based

O=c1[nH]c(=S)n(C[C@H]2CCCO2)c2nc[nH]c12
Activity (Mus musculus [1]): Active
Activity (Mus musculus [2]): Active
Activity (Mus musculus [3]): Active
Activity (Mus musculus [4]): Active
Activity (Mus musculus [5]): Active
Activity (Mus musculus [6]): Active

CC1=NN(c2ccccc2)C(=O)C1
Activity (Mus musculus [7]): inactive
Activity (Mus musculus [8]): inactive
Activity (Mus musculus [9]): inactive

CN(C)c1ccc2c(c1)[Si](C)(C)c1cc(N(C)C)ccc1C21c2ccccc2C(=O)N1NC(=S)NCCc1c[nH]c2ccc(O)cc12
Activity (HT-22 [10]): Active

CCNc1cc2[o+]c3cc(NCC)c(C)cc3c(-c3ccccc3C(=O)OCC)c2cc1C
Activity [11]: inactive
Activity [12]: inactive

COc1ccc2[nH]cc(CCNC(=S)NN3C(=O)c4ccccc4C34c3ccc(N(C)C)cc3[Si](C)(C)c3cc(N(C)C)ccc34)c2c1
inhibition [13]: Active
inhibition [14]: Active
deltaH [11]: 2390 cal/mol
inhibition [15]: Active
Drug uptake [16]: Not_active
Drug uptake [17]: Active
inhibition [18]: Active
Drug uptake [19]: Not_active
inhibition [20]: inactive
Kd (Myeloperoxidase): 11.6 µM
Activity (Brain [21]): Active
Activity [22]: Active
Activity (Mus musculus [23]): Active
inhibition [24]: inactive
Activity (Brain [25]): Active
Activity (HT-22 [26]): Active; Compound Showed Little Toxicity
Activity (Mus musculus [27]): Active
Drug uptake [28]: Active
inhibition [29]: Active
